Results published in patent US5283331A, “2-halogeno-oxetanocin A and phosphoric ester thereof” (Nippon Kayaku Kabushiki Kaisha, priority 1990, dated 1994).
Converted amounts (≈) assume the structure as drawn.

What was measured:
virus = details: prior art: Journal of Antibiotics 39, 1623-25 (1986), EP-A2-0182315; cited from earlier work
[1] = Stability to adenosine deaminase (residual percentage by HPLC); format: in vitro ADME, young calf; details: bovine, pH 6.8, 37° C., 5 units adenosine deaminase; for remaining at 0.5 h: 30 min; for remaining at 1 h: 60 min; for remaining at 2 h: 120 min
Procedure: (§1) Sample (0.05 ml) was dissolved into 20 ml of 0.1M phosphate buffer (pH 6.8), and 5 units of adenosine deaminase originated from young calf intestinal mucous membrane (SIGMA Product No. A-1155) was added. While keeping the resulting mixture at a constant temperature of 37° C., its 1 ml portion was sampled out at predetermined intervals. After adding 1 μmole of coformycin and 10-hold diluting the mixture with water, residual percentage of the sample was determined by reverse phase high performance liquid chromatography (column: Senshu Pak ODS-5121-N, 6.phi.×150 mm; eluent: 0.1M citrate buffer-acetonitrile-methanol (50:2:1); flow rate: 1.8 ml/min.; detection: UV detector, 254 nm).

adenosine deaminase = assay: as above; format: in vitro ADME, young calf; details: 0 min; pH 6.8, 37° C., 5 units adenosine deaminase
Procedure: as §1

HIV = assay: Anti-HIV activity in MT-4 cells (viral antigen expression, fluorescent antibody method); format: cell-based
Procedure: Anti-HIV activity (anti-Human Immunodeficiency Virus activity) was measured in the following manner. Thus, about 100,000 cells/ml of MT-4 cells were placed in a 24-well tray, and 100 μl of a solution containing a predetermined quantity of a compound of this invention was added thereto. After culturing it at 37° C. for 2 hours in a 5% (v/v) carbon dioxide incubator, 2.5×10^5 infection units of HIV was added and cultured for 4 days. Then, a portion of the culture fluid was applied onto a slide glass and immobilized with acetone, after which expression of the viral antigen was tested according to the fluorescent antibody method. As the primary antibody of the fluorescent antibody method, a serum of AIDS patient was used. As the secondary antibody, FITC-labelled anti-human IgG was used.
The test were conducted in a comparative manner, using oxetanocin A as a control substance for each of Experiment 1 and 2.

[2] = test system: cytomegalovirus (A0169 strain); assay: Anti-cytomegalovirus activity (plaque reduction in human embryo fibroblast); format: cell-based; details: for EC50: Human betaherpesvirus 5, 240 h, plaque number, human embryo fibroblast, 10 days, 37° C., read-out: Anti-cytomegalovirus activity ED50 (50% inhibitory value)
Procedure: Anti-cytomegalovirus activity was measured in the following manner. Thus, a 35 mm dish having a single layer of human embryo fibroblast was infected with 100 PFU (Plaque Forming Units) of cytomegalovirus (A0169 strain). After adsorption for one hour, it was covered with a layer of a medium [0.5% agarose and 2% fetal calf serum] containing a varied concentration of a compound of this invention. After culturing it for 10 days at 37° C. in a 5% (v/v) carbon dioxide incubator, the number of plaques formed was measured.

Row | remaining at 10 min [1] [%] | remaining at 0.5 h [1] [%] | remaining at 1 h [1] [%] | remaining at 2 h [1] [%] | Residual percentage (%) (adenosine deaminase) | Structure (SMILES) | antiviral activity (in words) (virus) | activity against HIV (in words) (HIV) | activity against cytomegalovirus (in words) [2] | EC50 [2] [mg/L]
1 | – | – | – | – | – | Nc1ncnc2c1ncn2[C@@H]1O[C@H](CO)[C@H]1CO [Oxetanocin] | having an antiviral activity | – | – | –
2 | 100 | 100 | 100 | 100 | 100 | Nc1nc(Cl)nc2c1ncn2[C@@H]1O[C@H](COP(=O)(O)O)[C@H]1CO [Compound No. 6, 2-Chloro-oxetanocin A 4'-phosphate] | – | excellent activities against HIV | – | –
3 | 100 | 100 | 100 | 100 | 100 | Nc1nc(F)nc2c1ncn2[C@@H]1O[C@H](CO)[C@H]1CO [Compound No. 1, 2-Fluoro-oxetanocin A] | – | excellent activities against HIV | excellent activity against cytomegalovirus | 0.3 (≈ 1.11 µM)
4 | 100 | 100 | 100 | 100 | 100 | Nc1nc(Cl)nc2c1ncn2[C@@H]1O[C@H](CO)[C@H]1CO [Compound No. 2, 2-Chloro-oxetanocin A] | – | excellent activities against HIV | – | –
5 | 100 | 100 | 100 | 100 | 100 | Nc1nc(F)nc2c1ncn2[C@@H]1O[C@H](COP(=O)(O)O)[C@H]1CO [Compound No. 5, 2-Fluoro-oxetanocin A 4'-phosphate] | – | – | – | –

Row | Structure (SMILES) | remaining at 10 min [1] [%] | remaining at 0.5 h [1] [%] | remaining at 1 h [1] [%] | remaining at 2 h [1] [%] | Residual percentage (%) (adenosine deaminase) | antiviral activity (in words) (virus) | activity against HIV (in words) (HIV) | activity against cytomegalovirus (in words) [2] | EC50 [2] [mg/L]
6 | Nc1ncnc2c1ncn2[C@@H]1O[C@H](CO)[C@H]1CO [Oxetanocin A] | 85 | 28 | 0 | 0 | 100 | – | – | – | 13 (≈ 51.7 µM)
